Among the data in patent publication US8471005B2 (Cephalon, Inc., priority 2008, dated 2013) are IC50 values, retold here.

One test concerns the target T1, JAK2 (Homo sapiens, UniProt O60674).
T1 construct: host or cells: baculovirus expression system
The test is described as follows: Recombinant Human JAK2 Kinase Assay (TRF). The class given is biochemical. As to conditions: JAK2 kinase inhibition, 0.2 μM ATP; read-out: JAK2 Potency. In a few lines:
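TRF read-out: Eu-N1 PY100 anti-phosphotyrosine antibody detects product. Enzyme is baculovirus-expressed JAK2 at 15 ng/ml; substrate is a biotinyl 15-mer peptide bound to Neutravidin-coated wells. Buffer 20 mM HEPES pH 7.2, 0.2 μM ATP, 1 mM MnCl2, 0.1% BSA, 2.5% DMSO final; 20 min, RT.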

For the next test, the target named is T2, ALK (Homo sapiens, UniProt Q9UM73).
T2 construct: host or cells: baculovirus expression system
The test is described as follows: ALK Kinase Assay (ELISA/TRF, PLC-γ substrate). The format is biochemical. The settings on record: ALK kinase inhibition, 1 μM ATP; read-out: ALK Potency. In a few lines: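 Time-resolved fluorescence ELISA using Eu-N1 PT66 antibody to detect phosphorylated PLC-γ (coated at 10 μg/mL). Enzyme at 30 ng/ml ALK; 15 min incubation, 37° C.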
For orientation: An ELISA detects its analyte on a solid surface through an enzyme-linked reagent.

T1 sequence (O60674 whole entry): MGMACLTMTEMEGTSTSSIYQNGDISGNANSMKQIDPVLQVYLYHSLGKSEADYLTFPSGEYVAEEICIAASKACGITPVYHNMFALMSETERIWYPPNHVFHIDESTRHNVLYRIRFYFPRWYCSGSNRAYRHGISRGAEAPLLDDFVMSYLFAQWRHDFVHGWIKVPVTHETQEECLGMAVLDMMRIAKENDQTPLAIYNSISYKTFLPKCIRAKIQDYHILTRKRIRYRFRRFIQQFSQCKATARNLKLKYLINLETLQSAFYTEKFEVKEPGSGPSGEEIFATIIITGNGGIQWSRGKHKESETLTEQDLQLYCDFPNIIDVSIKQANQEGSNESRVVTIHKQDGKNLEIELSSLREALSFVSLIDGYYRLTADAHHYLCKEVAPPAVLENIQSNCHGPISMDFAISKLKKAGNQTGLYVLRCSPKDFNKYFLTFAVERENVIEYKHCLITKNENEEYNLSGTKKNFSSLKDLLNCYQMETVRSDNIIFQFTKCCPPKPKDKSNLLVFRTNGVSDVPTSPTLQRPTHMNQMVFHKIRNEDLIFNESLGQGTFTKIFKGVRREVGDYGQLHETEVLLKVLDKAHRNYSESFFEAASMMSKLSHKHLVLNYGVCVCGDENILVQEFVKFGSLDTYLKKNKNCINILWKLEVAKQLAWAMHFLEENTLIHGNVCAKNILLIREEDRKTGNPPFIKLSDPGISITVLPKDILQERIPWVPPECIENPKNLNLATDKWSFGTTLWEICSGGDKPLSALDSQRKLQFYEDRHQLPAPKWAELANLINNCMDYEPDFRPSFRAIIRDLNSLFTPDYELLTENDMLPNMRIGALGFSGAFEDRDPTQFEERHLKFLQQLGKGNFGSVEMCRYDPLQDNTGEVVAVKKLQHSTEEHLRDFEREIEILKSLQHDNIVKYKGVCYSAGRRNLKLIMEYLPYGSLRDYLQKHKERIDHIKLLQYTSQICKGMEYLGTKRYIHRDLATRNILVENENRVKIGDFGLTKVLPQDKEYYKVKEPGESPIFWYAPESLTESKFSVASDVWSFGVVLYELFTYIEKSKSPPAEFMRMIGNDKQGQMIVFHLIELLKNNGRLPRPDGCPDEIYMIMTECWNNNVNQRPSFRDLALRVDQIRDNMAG
T2 sequence (Q9UM73 19-1620): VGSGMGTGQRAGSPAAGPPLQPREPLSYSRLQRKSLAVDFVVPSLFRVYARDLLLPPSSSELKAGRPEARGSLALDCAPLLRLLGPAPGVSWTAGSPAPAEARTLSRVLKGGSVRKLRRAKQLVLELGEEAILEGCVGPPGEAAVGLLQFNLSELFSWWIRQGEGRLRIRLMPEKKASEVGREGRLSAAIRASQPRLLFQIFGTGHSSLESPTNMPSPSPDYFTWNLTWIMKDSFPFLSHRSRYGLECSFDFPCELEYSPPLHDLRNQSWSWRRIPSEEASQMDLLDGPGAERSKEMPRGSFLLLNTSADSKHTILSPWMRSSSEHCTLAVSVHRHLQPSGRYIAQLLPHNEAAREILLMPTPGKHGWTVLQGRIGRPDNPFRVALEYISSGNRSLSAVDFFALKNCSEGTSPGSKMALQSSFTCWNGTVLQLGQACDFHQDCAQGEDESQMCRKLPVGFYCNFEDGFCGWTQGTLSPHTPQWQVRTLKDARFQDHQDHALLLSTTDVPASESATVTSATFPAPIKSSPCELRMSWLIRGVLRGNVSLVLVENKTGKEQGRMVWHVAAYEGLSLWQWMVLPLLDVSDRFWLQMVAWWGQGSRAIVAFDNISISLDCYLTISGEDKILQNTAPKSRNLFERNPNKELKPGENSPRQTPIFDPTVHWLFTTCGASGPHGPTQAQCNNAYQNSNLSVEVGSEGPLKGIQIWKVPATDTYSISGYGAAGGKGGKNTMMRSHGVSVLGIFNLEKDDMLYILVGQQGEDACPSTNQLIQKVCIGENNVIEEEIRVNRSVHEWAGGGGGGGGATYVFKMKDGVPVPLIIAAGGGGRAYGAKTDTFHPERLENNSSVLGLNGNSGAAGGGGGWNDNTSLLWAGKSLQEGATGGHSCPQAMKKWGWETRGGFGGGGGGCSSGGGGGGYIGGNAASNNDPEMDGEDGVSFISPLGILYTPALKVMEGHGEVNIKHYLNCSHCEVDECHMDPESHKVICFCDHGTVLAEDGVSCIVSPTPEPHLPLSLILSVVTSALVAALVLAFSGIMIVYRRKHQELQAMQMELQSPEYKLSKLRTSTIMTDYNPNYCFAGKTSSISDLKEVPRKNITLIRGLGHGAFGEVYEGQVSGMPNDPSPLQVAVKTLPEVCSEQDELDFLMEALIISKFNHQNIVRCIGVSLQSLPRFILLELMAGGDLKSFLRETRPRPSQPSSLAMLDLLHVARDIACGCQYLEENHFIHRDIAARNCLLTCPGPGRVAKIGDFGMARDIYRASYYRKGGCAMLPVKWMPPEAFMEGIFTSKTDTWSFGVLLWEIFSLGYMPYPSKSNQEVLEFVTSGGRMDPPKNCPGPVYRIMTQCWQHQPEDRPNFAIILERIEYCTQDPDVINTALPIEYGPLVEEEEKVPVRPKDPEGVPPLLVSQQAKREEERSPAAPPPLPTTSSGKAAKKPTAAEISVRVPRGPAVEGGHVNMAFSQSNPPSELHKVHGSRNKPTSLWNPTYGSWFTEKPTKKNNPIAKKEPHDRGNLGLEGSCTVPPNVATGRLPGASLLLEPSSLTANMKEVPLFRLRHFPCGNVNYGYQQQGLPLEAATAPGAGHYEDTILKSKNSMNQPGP

Regarding `COc1cc(-c2cccnc2)ccc1Nc1ncc2ccc(-c3ccccc3N(C)S(C)(=O)=O)n2n1` [Example 808, N-{2-[2-(2-Methoxy-4-pyridin-3-yl-phenylamino)-pyrrolo[2,1-f][1,2,4]triazin-7-yl]-phenyl}-N-methyl-methanesulfonamide], the results for the IC50 at JAK2 and on ALK were over 10000 nM and 100 to 1000 nM, respectively.

Consider `COc1cc2c(cc1Nc1ncc3ccc(-c4ccccc4N(C)S(C)(=O)=O)n3n1)CN(C)C2` [Example 809, N-{2-[2-(6-Methoxy-2-methyl-2,3-dihydro-1H-isoindol-5-ylamino)-pyrrolo[2,1-f][1,2,4]triazin-7-yl]-phenyl}-N-methyl-methanesulfonamide], for which the IC50 on JAK2 is 100 to 1000 nM; on ALK it was under 100 nM.

For `COc1cc(C2CCN(CC(=O)N(C)C)CC2)ccc1Nc1ncc2ccc(-c3ccccc3N(C)S(C)(=O)=O)n2n1` [Example 810, 2-[4-(4-{7-[2-(Methanesulfonyl-methyl-amino)-phenyl]-pyrrolo[2,1-f][1,2,4]triazin-2-ylamino}-3-methoxy-phenyl)-piperidin-1-yl]-N,N-dimethyl-acetamide], the IC50 on JAK2 is 100 to 1000 nM; at ALK, under 100 nM.

Regarding `COc1cc(C2CCN(CC(=O)N(C)C)CC2)ccc1Nc1ncc2ccc(-c3ccccc3OC)n2n1` [Example 811, 2-(4-{3-Methoxy-4-[7-(2-methoxy-phenyl)-pyrrolo[2,1-f][1,2,4]triazin-2-ylamino]-phenyl}-piperidin-1-yl)-N,N-dimethyl-acetamide], the figures for the IC50 on JAK2 and on ALK were 100 to 1000 nM and under 100 nM, respectively.

Take `COc1cc(C2CCN(CC(N)=O)CC2)ccc1Nc1ncc2ccc(-c3ccccc3N(C)S(C)(=O)=O)n2n1` [Example 812, 2-[4-(4-{7-[2-(Methanesulfonyl-methyl-amino)-phenyl]-pyrrolo[2,1-f][1,2,4]triazin-2-ylamino}-3-methoxy-phenyl)-piperidin-1-yl]-acetamide]: the IC50 is 100 to 1000 nM on JAK2 and under 100 nM at ALK.

Regarding `COc1cc(C2CCN(C(=O)CN(C)C)CC2)ccc1Nc1ncc2ccc(-c3ccccc3N(C)S(C)(=O)=O)n2n1` [Example 813, N-[2-(2-{4-[1-(2-Dimethylamino-acetyl)-piperidin-4-yl]-2-methoxy-phenylamino}-pyrrolo[2,1-f][1,2,4]triazin-7-yl)-phenyl]-N-methyl-methanesulfonamide], the IC50 on JAK2 was 1000 to 10000 nM; at ALK, under 100 nM.

`COc1cc(C2CCN(CC(N)=O)CC2)ccc1Nc1ncc2ccc(-c3ccccc3OC)n2n1` [Example 814, 2-(4-{3-Methoxy-4-[7-(2-methoxy-phenyl)-pyrrolo[2,1-f][1,2,4]triazin-2-ylamino]-phenyl}-piperidin-1-yl)-acetamide]: the figures for the IC50 at JAK2 and at ALK were 100 to 1000 nM and under 100 nM, respectively.

On to `COc1cc(C2CCN(C(=O)CN(C)C)CC2)ccc1Nc1ncc2ccc(-c3ccccc3OC)n2n1` [Example 815, 2-Dimethylamino-1-(4-{3-methoxy-4-[7-(2-methoxy-phenyl)-pyrrolo[2,1-f][1,2,4]triazin-2-ylamino]-phenyl}-piperidin-1-yl)-ethanone], for which the IC50 on JAK2 was 100 to 1000 nM; at ALK, under 100 nM.

`COc1cc2c(cc1Nc1ncc3ccc(-c4ccccc4OC)n3n1)CN(C)C2` [Example 816, (6-Methoxy-2-methyl-2,3-dihydro-1H-isoindol-5-yl)-[7-(2-methoxy-phenyl)-pyrrolo[2,1-f][1,2,4]triazin-2-yl]-amine]: the IC50 at JAK2 and on ALK was under 100 nM each time.

For the molecule `COc1cc(C2CCN(C(=O)OC(C)(C)C)CC2)ccc1Nc1ncc2ccc(-c3ccccc3OC)n2n1` [Example 817, 4-{3-Methoxy-4-[7-(2-methoxy-phenyl)-pyrrolo[2,1-f][1,2,4]triazin-2-ylamino]-phenyl}-piperidine-1-carboxylic acid tert-butyl ester], the IC50 on JAK2 and at ALK was over 10000 nM in each case.

As to `COc1cc(C2CCN(C(=O)OC(C)(C)C)CC2)ccc1Nc1ncc2ccc(-c3ccccc3N(C)S(C)(=O)=O)n2n1` [Example 818, 4-(4-{7-[2-(Methanesulfonyl-methyl-amino)-phenyl]-pyrrolo[2,1-f][1,2,4]triazin-2-ylamino}-3-methoxy-phenyl)-piperidine-1-carboxylic acid tert-butyl ester], the figures for the IC50 on JAK2 and on ALK were over 10000 nM and 100 to 1000 nM, respectively.

Take `COc1cc(C2CCNCC2)ccc1Nc1ncc2ccc(-c3ccccc3N(C)S(C)(=O)=O)n2n1` [Example 819, N-{2-[2-(2-Methoxy-4-piperidin-4-yl-phenylamino)-pyrrolo[2,1-f][1,2,4]triazin-7-yl]-phenyl}-N-methyl-methanesulfonamide]: the figures for the IC50 on JAK2 and on ALK were 1000 to 10000 nM and under 100 nM, respectively.

In the case of `COc1cc(C2CCNCC2)ccc1Nc1ncc2ccc(-c3ccccc3OC)n2n1` [Example 820, [7-(2-Methoxy-phenyl)-pyrrolo[2,1-f][1,2,4]triazin-2-yl]-(2-methoxy-4-piperidin-4-yl-phenyl)-amine], the figures for the IC50 on JAK2 and at ALK were 100 to 1000 nM and under 100 nM, respectively.

For the molecule `COc1cc(C2CCN(C(=O)C(C)(C)N)CC2)ccc1Nc1ncc2ccc(-c3ccccc3OC)n2n1` [Example 821, 2-Amino-1-(4-{3-methoxy-4-[7-(2-methoxy-phenyl)-pyrrolo[2,1-f][1,2,4]triazin-2-ylamino]-phenyl}-piperidin-1-yl)-2-methyl-propan-1-one], the IC50 at JAK2 is 100 to 1000 nM; at ALK it was under 100 nM.

Turning to `COc1cc(C2CCN(C(=O)C(C)(C)N)CC2)ccc1Nc1ncc2ccc(-c3ccccc3N(C)S(C)(=O)=O)n2n1` [Example 822, N-[2-(2-{4-[1-(2-Amino-2-methyl-propionyl)-piperidin-4-yl]-2-methoxy-phenylamino}-pyrrolo[2,1-f][1,2,4]triazin-7-yl)-phenyl]-N-methyl-methanesulfonamide], the IC50 on JAK2 is 100 to 1000 nM; on ALK it was under 100 nM.

On to `COc1cc(C2CCN(C(=O)CN)CC2)ccc1Nc1ncc2ccc(-c3ccccc3OC)n2n1` [Example 823, 2-Amino-1-(4-{3-methoxy-4-[7-(2-methoxy-phenyl)-pyrrolo[2,1-f][1,2,4]triazin-2-ylamino]-phenyl}-piperidin-1-yl)-ethanone], for which the IC50 on JAK2 is 100 to 1000 nM; on ALK, under 100 nM.

For the molecule `COc1cc(C2CCN(C(=O)CN)CC2)ccc1Nc1ncc2ccc(-c3ccccc3N(C)S(C)(=O)=O)n2n1` [Example 824, N-[2-(2-{4-[1-(2-Amino-acetyl)-piperidin-4-yl]-2-methoxy-phenylamino}-pyrrolo[2,1-f][1,2,4]triazin-7-yl)-phenyl]-N-methyl-methanesulfonamide], the IC50 at JAK2 was 1000 to 10000 nM; at ALK, under 100 nM.

Consider `COc1cc(C2CCN(C3COC3)CC2)ccc1Nc1ncc2ccc(-c3ccccc3OC)n2n1` [Example 827, [2-Methoxy-4-(1-oxetan-3-yl-piperidin-4-yl)-phenyl]-[7-(2-methoxy-phenyl)-pyrrolo[2,1-f][1,2,4]triazin-2-yl]-amine], for which the IC50 is 100 to 1000 nM on JAK2 and under 100 nM at ALK.

`COc1cc(C2CCN(C3COC3)CC2)ccc1Nc1ncc2ccc(-c3ccccc3N(C)S(C)(=O)=O)n2n1` [Example 828, N-(2-{2-[2-Methoxy-4-(1-oxetan-3-yl-piperidin-4-yl)-phenylamino]-pyrrolo[2,1-f][1,2,4]triazin-7-yl}-phenyl)-N-methyl-methanesulfonamide]: the IC50 was 1000 to 10000 nM at JAK2 and under 100 nM at ALK.
